Test [1] has as its system bone marrow mesenchymal stromal cells (BMSC). Nature of the test: BMSC differentiation into chondrocytes in alginic acid gel beads. The class given is cell-based, Japanese white rabbit. The settings on record: 10 μg/ml SDF-1 or 250 μg/ml AMD3100 in alginic acid gel beads vs alginic acid only, 28 days. As to the method:
(§1) Bone marrows were collected from a tibia of a 15-week-old Japanese white rabbit to isolate and culture bone marrow mesenchymal stromal cells (BMSC). Isolation was carried out according to the method of Wakitani et al. (Wakitani S et al., J bone Joint Surg Am, Vol. 76, p 579, 1994). The isolated cells were incubated at 37° C. under humidified 5% CO2 and maintained in monolayer culture.
(§2) Proliferation and differentiation of BMSC were tested by embedding BMSC in alginic acid gel beads. The cells were suspended in a 2% sodium alginate solution. The suspension was dripped in a CaCl2 solution with a pipette for gelation. Ten minutes later, the resulting microcapsules were washed twice with Ca/Mg-free PBS and once with DMED-HG. The resulting beads contained 1×10^6 cells per 40 μl of beads.
Differentiation into chondrocytes in the alginic acid gel beads was tested by culturing BMSC-containing beads in a DMED-HG medium containing 100 μg/ml sodium pyruvate (ICN Biomedicals, Aurora, Ohio), 40 μg/ml proline (ICN Biomedicals), 50 μg/ml ascorbate-2-phosphate (Wako, Osaka, Japan), 1×10^−7M dexamethasone (ICN Biomedicals), 1% ITS plus mix (Sigma-Aldrich, St. Louis., Mo.), 1% antibiotics and 10 ng/ml recombinant human transforming growth factor […] (R&D Systems, Minneapolis, Minn.) (dissolved with 4 mM HCl containing 1 μg/ml bovine serum albumin) for 28 days. The medium was exchanged every three days. […]

For test [2] the test system is unchanged. Nature of the test: BMSC proliferation in alginic acid gel beads (Cell Counting Kit-8). To be noted: 10 μg/ml SDF-1 or 250 μg/ml AMD3100 in alginic acid gel beads vs alginic acid only, up to 7 days, n=5. Format: cell-based, Japanese white rabbit. As to the method:
as §1, §2
The alginic acid gel beads containing 10 μg/ml of SDF-1 or 250 μg/ml of AMD3100 were cultured in DMED-HG containing 10% FBS and 1% antibiotics for 3 hours, 1 day, 2 days, 3 days and 7 days. The cells collected from the alginic acid gel beads were washed with PBS for three times, incubated in 50 mM EDTA (Gibco BRL laboratories) at 37° C. under 5% CO2. Ten minutes later, the cells were centrifuged at 1,500 g for 5 minutes for cell collection and the number of live cells was counted with Cell Counting Kit-8 (Dojindo Laboratories, Tokyo, Japan).

In the case of `c1cc(CN2CCCNCCNCCCNCC2)ccc1CN1CCCNCCNCCCNCC1` [AMD3100], the “differentiation of BMSC into chondrocytes” value in test [1] is “no difference”. Also, the “BMSC proliferation (number of live cells)” value in test [2] was “no significant difference”.

Values taken from patent publication US9821027B2, “Method for regenerating cartilage comprising applying a monovalent metal salt of alginic acid and SDF-1” (Mochida Pharmaceutical Co., Ltd., priority 2011, dated 2017).
